Tests used:
mCAR promoter = experiment: NHR-promoter luciferase screen, mCAR promoter; format: cell-based, mouse; settings: for luciferase activity normalized to lacZ activity and to a control, mCAR: mCAR promoter-luciferase, CV-1 cells, NHR +/- ligand, control = 1.00; for Luc. act., normalized to lacZ / Normalized Luc. act., normalized to control: mCAR promoter, HR/ligand component
Procedure: (§1) The use, feasibility, and reproducibility of the functional NHR-promoter screen in a 48-well format have been tested validated. Briefly, there were co-expressed 50 ng of each NHR/NHR homodimer or NHR/RXR heterodimer with 100 ng promoter/luciferase construct and 50 ng of LacZ (as a control for transfection efficiency) in CV-1 cells using Fugene HD (Roche) as a transfection reagent (alternatively or additionally, a CMV-YFP construct can be used as a transfection control). Each of the nuclear hormone receptors that were used in these experiments was cloned into a pcDNA3.1 vector and comprised a C-terminally linked V5H6 tag. Twenty-four hours after transfection, appropriate ligands were added, where applicable, (see Table 5 for various ligands and concentrations and after 48 hrs, samples were assayed for luciferase and LacZ activity. To measure for luciferase activity 15 ul of sample was added to 30 ul of luciferase buffer (20 mM tricine, 1.07 mM MgCarbonate, 2.67 mM MgSulfate, 0.1 mM Naz-EDTA, 5 mM DTT, 5 mM ATP, 0.15 mg/ml CoA, 0.5 mM Luciferin), mixed briefly, and run in a Perkin Elmer Victor 5 luminometer. Thus, the functional NHR-promoter screen was used to observe the transcriptional activity of 29 promoters from various physiological pathways including inflammation, lipid and sugar metabolism, cholesterol transport, xenobiotic metabolism, and circadian rhythm.
(§2) The promoters that facilitate transcription of the indicated gene products that were tested using the protocols described herein are listed in the first row of the table. The nuclear hormone receptors and, where applicable, ligands that were assayed for their transcriptional effects on the promoters are listed in the first column of the table. The data represent the luciferase activity of each sample normalized to both the lacZ activity of that sample and to a control, e.g., no NHR or ligand, as customary in the art. As described previously, these normalizations allow the transcriptional activity of each reporter cell to be compared to other samples.
(§3) Tables 7-40 show the transcriptional effects of the hormone receptors, and, where applicable, ligands (orphan receptors are screened without ligand), on each individual promoter. […] The control data of each table are shown in their last rows.

hCAR promoter = experiment: NHR-promoter luciferase screen, hCAR promoter; format: cell-based, human; settings: for luciferase activity normalized to lacZ activity and to a control, hCAR: hCAR promoter-luciferase, CV-1 cells, NHR +/- ligand, control = 1.00; for Luc. act., normalized to lacZ / Normalized Luc. act., normalized to control: hCAR promoter, HR/ligand component
Procedure: as §1, §2, §3

hPOMC promoter = experiment: NHR-promoter luciferase screen, hPOMC promoter; format: cell-based, human; settings: for Luc. act., normalized to lacZ / Normalized Luc. act., normalized to control: hPOMC promoter, HR/ligand component; for hPOMC promoter reporter activity: transcription factor +/- ligand, control = 1.00
Procedure: as §1, §2, §3

mPOMC promoter = experiment: NHR-promoter luciferase screen, mPOMC promoter; format: cell-based, mouse; settings: for Results of assays of transcription factor (+/- ligand) with mPOMC: Table 6d, luciferase activity relative to control (control = 1.00); for Luc. act., normalized to lacZ / Normalized Luc. act., normalized to control: mPOMC promoter, HR component with or without ligand; for Normalized Luc. act., normalized to control: relative to control
Procedure: as §1, §2, §3

mDio1 promoter = experiment: NHR-promoter luciferase screen, mDio1 promoter; format: cell-based, mouse; settings: for Luc. act., normalized to lacZ / Normalized Luc. act., normalized to control: Dio1, HR component without or with its ligand; for mDio1 promoter reporter activity: transcription factor +/- ligand, control = 1.00
Procedure: as §1, §2, §3

mABCA1 promoter = experiment: NHR-promoter luciferase screen, mABCA1 promoter; format: cell-based, mouse; settings: for Luc. act., normalized to lacZ / Normalized Luc. act., normalized to control: ABCA1 promoter, hormone receptor with or without its ligand; for Normalized Luc. act., normalized to control: relative to control; for mABCA1 promoter reporter activity: transcription factor +/- ligand, control = 1.00
Procedure: as §1, §2, §3

Substance	luciferase activity normalized to lacZ activity and to a control, mCAR (mCAR promoter)	Luc. act., normalized to lacZ (mCAR promoter)	Normalized Luc. act., normalized to control (mCAR promoter)	luciferase activity normalized to lacZ activity and to a control, hCAR (hCAR promoter)	Luc. act., normalized to lacZ (hCAR promoter)	Normalized Luc. act., normalized to control (hCAR promoter)	Luc. act., normalized to lacZ (hPOMC promoter)	Normalized Luc. act., normalized to control (hPOMC promoter)	hPOMC promoter reporter activity (hPOMC promoter)	Results of assays of transcription factor (+/- ligand) with mPOMC (mPOMC promoter)	Luc. act., normalized to lacZ (mPOMC promoter)	Normalized Luc. act., normalized to control (mPOMC promoter)	Luc. act., normalized to lacZ (mDio1 promoter)	Normalized Luc. act., normalized to control (mDio1 promoter)	mDio1 promoter reporter activity (mDio1 promoter)	Luc. act., normalized to lacZ (mABCA1 promoter)	Normalized Luc. act., normalized to control (mABCA1 promoter)	mABCA1 promoter reporter activity (mABCA1 promoter)	luciferase/LacZ, hPOMC (selected results) (hPOMC promoter; hPOMC promoter-luciferase, NHR +/- ligand, control = 1.0)
PNR: Photoreceptor-specific Nuclear Receptor (NR2E3), cDNA driver	0.55	21.0	0.6	0.38	11.9	0.4	1.5	0.3	0.34	0.81	56.0	0.8	6.4	1.4	1.44	9.9	1.8	1.76	–
AR: Androsterone Receptor (NR3C4), cDNA driver	0.81	30.88	0.8	0.89	28.0	0.9	1.8	0.4	0.42	1.05	72.2	1.0	6.4	1.4	1.43	8.3	1.5	1.48	–
PPARg: Peroxisome proliferator activated receptor γ (NR1C3), cDNA driver	1.25	47.7	1.3	1.58	49.8	1.6	2.8	0.6	0.65	1.57	108.0	1.6	9.9	2.2	2.23	14.4	2.6	2.56	0.6
PPARa: Peroxisome proliferator activated receptor α (NR1C1), cDNA driver	0.88	33.6	0.9	1.39	43.9	1.4	2.4	0.6	0.57	1.13	77.6	1.1	4.7	1.1	1.06	10.7	1.9	1.90	–
ERR1: Estrogen Related Receptor α (NR3B1, ERRa), cDNA driver	1.07	40.9	1.1	0.82	25.8	0.8	2.7	0.6	0.63	1.00	68.9	1.0	6.2	1.4	1.39	8.2	1.5	1.47	–
TLX: Tailless (homolog of drosophila) (NR2E1), cDNA driver	0.39	15.0	0.4	0.56	17.6	0.6	2.6	0.6	0.60	0.74	51.1	0.7	8.4	1.9	1.88	21.8	3.9	3.88	–
LXRa: Liver X Receptor α (NR1H3), cDNA driver	0.78	29.5	0.8	1.87	58.9	1.9	6.8	1.6	1.58	1.70	117.1	1.7	4.7	1.1	1.06	93.0	16.6	16.56	–

Reference: US20110263454A1, “Methods of Identifying Functional Characteristics of Promoters, Transcription Modifying Proteins and Transcription Modulating Agents” (Salk Institute for Biological Studies, priority 2008, published 2011)
